Experimental data from patent US20230220047A1, “PEPTIDES FOR TREATMENT OF SEPSIS AND CANCER” (NORWEGIAN UNIVERSITY OF SCIENCE AND TECHNOLOGY (NTNU), priority 2020, published 2023).
“Also recorded” adds a separate entry of the source.

Experiments:
[1] = system: primary Vk*MYC multiple myeloma cells; assay: Primary Vk*MYC multiple myeloma cells; type: cell-based, mouse; details: 7.5 or 15 μM, 48 h
Description: Isolated primary cells were seeded then incubated for 48 hours in growth medium supplemented with water, penetratin, P7-Pen, P7-A4-Pen or P7-N4-Pen, then counted. Peptides were included at concentrations of 7.5 or 15 μM. […] Results are based on 3 biological replicates, error bars show standard deviation of mean.
(§1) Multiple myeloma cells JJN-3 (DSMZ (Germany) no. ACC 541), ANBL-6 (Cellosaurus accession number CVCL_5425, obtained from Dr Diane Jelinek, Mayo Clinic, Rochester, Minn.), INA-6 (Cellosaurus accession number CVCL_5209, obtained from Dr M. Gramatzki, University of Erlangen-Nurnberg, Erlangen, Germany), RPMI-8226 (ATCC CCL-155), and IH-1 (Cellosaurus accession number CVCL_WZ44, established from the pleural effusion of a myeloma patient by Myeloma research group, IKOM, NTNU, Trondheim, Norway) were grown in RPMI-1640 (Sigma-Aldrich Norway, Oslo, Norway) supplemented with 100 nM penicillin/streptomycin and 10% FCS, and for ANBL-6, IH-1 and INA-6 cells 2 ng/ml recombinant IL-6 (Gibco, Thermo Fisher Scientific, Waltham, Mass., USA). Murine multiple myeloma Vk*MYC cells were obtained from M.D. Leif Bergsagel (Mayo Clinic, Richester, Minn., USA) and cultured in RPMI-1640 supplemented with 2% human serum (B^+, The blood bank, St Olav's Hospital, Trondheim, Norway), 100 nM penicillin/streptomycin, L-Glutamine (2 mM) and recombinant IL-6 (1 ng/ml). HEK293T (ATCC CRL-3216) were cultured in DMEM with 10% FCS. THP-1 TRAM knockout (KO) and TLR4 KO cell lines, and matching lentivirally transduced control cell lines, were differentiated in the same way as wild type (WT) THP-1. TRAM KO THP-1 cell line is described in Yurchenko et al. (supra).
Primary multiple myeloma cells were isolated from Vk*Myc mice and provided by the Multiple Myeloma Research Group, IKOM, NTNU. The peptides P7-Pen, P7-N4-Pen and P7-A4-Pen were applied to the cultured primary cells and effect of the peptides on cell growth analysed as previously.

[2] = system: ANBL-6 multiple myeloma cells; assay: CellTiter-Glo cell viability assay, ANBL-6; type: cell-based; details: for anti-proliferative activity over a concentration series: 5, 10, 12.5, 15, 20 and 30 μM or 5, 10 and 20 μM
Description: Minor effects on the proliferation of the IH-1 and RPMI 8226 cell lines are seen. Cells were seeded at the level shown (left-hand bar of each set) then incubated in medium containing water, 10 μM penetratin or 10 μM P7-A4-Pen for 48 hr (except for INA-6 cells, which were incubated with 12.5 μM penetratin or 12.5 μM P7-A4-Pen). The number of viable cells was detected based on quantitation of ATP by luminescent signal in correlation to a standard curve prepared for each cell line. Results are based on 3-5 biological replicates for each condition, error bars show standard deviation of mean.
Cells were seeded and then incubated in growth medium alone or supplemented with water, DMSO, 15 μM penetratin or 15 μM investigational peptide. The growth medium only and H2O—, DMSO- and penetratin-supplemented cultures constituted controls.
The solid horizontal lines show the amount of cells originally seeded. In (A) ANBL-6 cells were seeded at a level of 10,000 cells/well, then incubated in medium supplemented with water, the control peptide C3A-Pen, P7-Pen, P7-A4-Pen, P7-N4-Pen or P7-K2-Pen for 48 hours. The peptides were included at concentrations of 5, 10, 12.5, 15, 20 or 30 μM. Cells were counted at 48 hours. In (B), ANBL-6 cells were seeded at a level of 5000 cells/well, then incubated in medium supplemented with water, P6-Pen, P-P6-Pen, P7-D4-Pen or P7-A4-Pen for 48 hours. Peptides were included at concentrations of 5, 10 or 20 μM. Cells were counted at 48 hours. […] Results are based on 3 biological replicates, error bars show standard deviation of mean.
as §1
To evaluate the potential impact of the P7 peptide on proliferation of tumour cells of lymphoid origin, we performed a CellTiter-Glo Luminescent Cell Viability Assay to address proliferation of several multiple myeloma (MM) cell lines. For the assay, cells were incubated for 48 h in respective media containing either solvent (water), 10 μM control peptide (Pen) or the SLAMF1-derived peptide P7-A4-Pen for 48 h (FIG. 32) (with the exception of the INA-6 cells which were incubated with 12.5 μM control peptide or P7-A4-Pen). […] This effect could be mediated by P7-A4-Pen-induced inhibition of signalling pathways that are crucial for driving proliferation and/or survival of MM tumour cells.

[3] = system: TLR8; assay: Whole blood assay, CL075 stimulation; type: cell-based, human
From the text: […] Results are for at least 6 donors. The Wilcoxon matched-pairs signed rank test was used for statistical analysis between 2 groups in Prizm 8.2.1. In each graph, circles indicate whole blood pre-treated with water, squares indicate blood pre-treated with control peptide (average for treatment with Pen and C3-Pen), and triangles indicate pre-treatment with P7-Pen.
To evaluate the effect of peptides in an ex vivo system, a human whole blood model was used. Peripheral venous blood was drawn from 6 healthy donors into sterile polypropylene tubes (Thermo Scientific™ Nunc™ Biobanking and Cell Culture Cryogenic Tubes) containing the anti-coagulant Lepirudin (Refludan®; Celgene). Peptide solutions were made by diluting peptide stocks in DPBS (Dulbecco's Phosphate Buffered Saline with MgCl2 and CaCl2; Sigma-Aldrich) to obtain a final concentration of 140 μM. Peptide solution or DPBS was distributed in equal volume (50 μL) to 1.8 mL sterile polypropylene tubes (Thermo Scientific™Nunc™ Biobanking and Cell Culture Cryogenic Tubes). 250 μL whole blood was then added to the 1.8 mL tubes containing peptide solution or DPBS, and incubated at 37° C. under constant rotation for 1 h (concentration of peptides for pre-incubation: 23.3 μM). Stimulation solutions were made by diluting K12 LPS or CL075 in DPBS to obtain a final concentration in whole blood of 100 ng/mL (LPS) or 1 μg/mL (CL075) after addition of 50 μL stimulation solution or DPBS. Concentration of peptides in whole blood samples was reduced by this to 20 μM. Tubes were incubated at 37° C. under constant rotation for 4 h. Finally, plasma was isolated from the whole blood specimens by centrifugation, collected in 96 well plates (Corning® 96 Well CellBIND® Microplates), and stored at −20/−80° C. until analysis by multiplex/27-plex cytokine assay or IFNβ ELISA (VeriKine-HS Human Interferon Beta Serum ELISA Kit; pbl Assay Science).

[4] = system: E. coli particles; assay: Whole blood assay, E. coli particle stimulation; type: cell-based, human

Ac-ITVAASVTLTGRQIKIWFQNRRMKWKK-NH2 [Peptide P7-A4-Pen]
effect on primary multiple myeloma cells [1]: strong cytotoxic effect | effect on proliferation of ANBL-6 cells ([2]; 15 μM): anti-proliferative effect | anti-proliferative activity over a concentration series ([2]; 48 h): clear concentration-dependent effect | cell proliferation ([2]; ANBL-6, 10 μM, 48 h): strongly inhibited cell proliferation | cytotoxic activity (cell numbers below number seeded) ([2]; higher concentrations, 48 h): cytotoxic activity

Ac-ITVYASVTLTGRQIKIWFQNRRMKWKK-NH2 [Peptide P7-Pen]
TLR8-mediated pro-inflammatory cytokine secretion ([3]; 20 μM, CL075): no significant effect | TLR8-mediated IFNβ release/secretion by whole blood cells ([3]; 20 μM, CL075 1 μg/ml 4 h): effectively abrogated; also recorded: inhibited | effect on primary multiple myeloma cells [1]: strong cytotoxic effect | anti-proliferative activity over a concentration series ([2]; 48 h): essentially no anti-proliferative effect | E. coli-mediated IFNβ secretion ([4]; 20 μM, 4 h): significantly inhibiting | E. coli-mediated IL-1β secretion ([4]; 20 μM, 4 h): no significant effect | E. coli-mediated TNF production ([4]; 20 μM, 4 h): Significant inhibition | E. coli-mediated IL-6 ([4]; 20 μM, 4 h, not statistically significant): a degree of inhibition

Ac-ITVYASVTLTGRRRRRRRRRRR-NH2 [Peptide P7-Arg11]
CL075-mediated IFNβ secretion by whole blood cells ([3]; pilot assay, 10 μM, CL075 1 μg/ml): inhibited | E. coli-mediated IFNβ secretion by whole blood cells ([4]; pilot assay, 10 μM, E. coli particles): inhibited
